In US9616089B2, “Polymeric synthetic antidote” (Universite de Liege, priority 2013, dated 2017):

Columns and labels:
UFH [1] = test: Neutralization of UFH in whole blood of patients heparinized in vivo (extracorporeal circulation), aPTT test; assay type: biochemical, human
Experimental: In example 10, several (co-)polymers of formula (I), namely two linear homopolymers of PDMAEMA (samples CS023 and CK169) and two copolymers of PDMAEMA and PEO (samples A61 and BA003) were tested for neutralization of UFH injected on human patients subjected to ExtraCorporeal Circulation (ECC) during a cardiovascular surgical operation. According to the general practice in this clinical context, a fixed dose of 3 mg/kg of UFH is administrated to these patients by intravenous injection.
10 min after this dose injection of UFH, 40 ml of whole blood were collected from the patients. In vitro UFH neutralization was conducted less than 1 hour after blood collection adding one of the (co-)polymers listed in Table 7. The concentration of these polymers ranged from 3.4 to 45 μg/mL in whole blood. A special care was taken during the addition of (co-)polymer solutions in view to ensure a rapid and reproducible homogenization of these (co-)polymers in whole human blood (rapid injection of the solution in whole human blood, i.e. in less than 1 s), followed directly by 3 up-and-down aspirations to avoid any risk of local over-concentrations.
After a 15 minutes incubation period performed at 37° C. under lateral agitation the aPTT test was carried out immediately in order to determine the residual UFH activity. The neutralization effectiveness of the different homopolymers and copolymers and of protamine was estimated from the determination of CMax, i.e. the minimal polymer concentration giving rise to a maximum neutralization of UFH. Therapeutic index (Thind) of the (co-)polymers was established as the drug concentration window giving a pharmacological effect without impairing the coagulation pathways. The mean and standard deviations corresponding to these 3 parameters were calculated from 4 independent experiments performed on senior blood patients.

UFH [2] = test: Dose-response curve for UFH neutralization in human blood plasma, aPTT bioassay; assay type: biochemical; conditions: UFH 2 μg/mL in plasma, polymer 1 to 3 μg/mL
Experimental: In view to assess a possible difference in affinity between polymers of formula (I) and heparin versus protamine/heparin, dose-response curves were established, corresponding to a progressive titration of heparin action by increasing concentration of the polymers of formula (I) with aPPT bioassay (FIG. 5). This in vitro study was conducted adopting a fixed plasma concentration of UFH of 2 μg/mL added before the incubation with the polymers of formula (I). The concentration of the polymers of formula (I) was varied from 1 to 3 μg/mL. The mean and standard deviations (SD) were calculated from two independent experiments performed on senior blood donors.

UFH [3] = test: Neutralization of UFH in human plasma measuring factor Xa (chromogenic Coatest Heparin); assay type: biochemical; conditions: UFH and antidote 0.4 μg/mL, human plasma 15 min 37°C
Experimental: (§1) Activated partial thromboplastin time (aPTT) and anti-Xa activity were measured on the freshly isolated plasma using respectively a coagulometer (BCT; Dade Behring—Siemens) and a Microplate reader (Anthos HT3, type 12600). STA-C.K. Prest*2 kit was used. Coatest kit was used to evaluate the concentration of low molecular weight heparin in blood plasma following the reactions depicted below: LMW Heparin+AT→[LMW Heparin·AT] [LMW Heparin·AT]+FXa(excess)→[LMW Heparin·AT·FXa] 2a. S-2222+FXa→Peptide+pNA (yellow)+FXa(residual) 2b.
Where FXa represents factor Xa and S-2222 represents Bz-Ile-Glu-(γ-OR)-Gly-Arg-pNA (CA: 59068-47-2) (SEQ ID No. 1), a chromogenic substrate cleaved by free FXa to peptide (Bz-Ile-Glu-(γ-OR)-Gly-Arg (SEQ ID No. 2)) and pNA (p-nitroaniline). AT represents antithrombin. Heparin binds to AT, causing a change in the conformation of AT to a form that binds to and sequesters the activity of FXa. Addition of a peptide that competes with AT for heparin will increase the concentration of free FXa. Thus, restoration of the activity of FXa, as indicated by the amount of S-2222 converted to peptide and pNA, provides a measure of the ability of a peptide to neutralize the anticoagulant activity of heparin (provided in technical sheet of Instrumentation Laboratory).
The assay method was calibrated using standard solutions that contain 0.1 μg/mL of AT and heparin at concentrations ranging from 0.01 to 0.07 μg/mL in buffer/normal human plasma supplied with the Coatest kit. The standard solutions were incubated at 37° C. for 3-4 minutes, after which 100 μL of bovine factor Xa (0.71 nkat) were added to 200 μL of each standard solution. The mixtures were incubated at 37° C. for 30 sec, after which 200 μL of S-2222 (0.2 μmol, 37° C.) were added and the reaction mixtures were incubated at 37° C. for exactly 3 minutes. […] The absorbance was measured at 405 nm. The ability of CLC1 and CLC2 to neutralize the anticoagulant activity of heparin was determined by addition of each polymer to heparin solution, and the assay performed as described above. […]

LMWH = test: Neutralization of LMWH in human plasma measuring factor Xa (chromogenic Coatest Heparin); assay type: biochemical; conditions: LMWH and antidote 0.4 μg/mL each, human plasma 15 min 37°C
Experimental: Activated partial thromboplastin time (aPTT) and anti-Xa activity were measured on the freshly isolated plasma using respectively a coagulometer (BCT; Dade Behring—Siemens) and a Microplate reader (Anthos HT3, type 12600). STA-C.K. Prest*2 kit was used. Coatest kit was used to evaluate the concentration of low molecular weight heparin in blood plasma following the reactions depicted below: LMW Heparin+AT→[LMW Heparin·AT] [LMW Heparin·AT]+FXa(excess)→[LMW Heparin·AT·FXa] 2a. S-2222+FXa→Peptide+pNA (yellow)+FXa(residual) 2b. […]
The assay method was calibrated using standard solutions that contain 0.1 μg/mL of AT and heparin at concentrations ranging from 0.01 to 0.07 μg/mL in buffer/normal human plasma supplied with the Coatest kit. […] The absorbance was measured at 405 nm. The ability of CLC1 and CLC2 to neutralize the anticoagulant activity of heparin was determined by addition of each polymer to heparin solution, and the assay performed as described above.
The complexation of the synthetic polymers of formula (I) with low molecular weight heparin (LMWH) was assessed in vitro in the same experimental conditions as for UFH, thus using a concentration of heparin and polymers of formula (I) of 0.4 μg/mL. After their incubation of 15 minutes at 37° C., the remaining activity of factor Xa is recorded with the chromogenic assay Coatest Heparin.

UFH [4] = test: Dose-response UFH neutralization in whole human blood, aPTT test; assay type: biochemical; conditions: Table 4, UFH 2 μg/mL whole blood
Experimental: In Example 9 several (co-)polymers of formula (I) were tested for neutralization of UFH in whole blood. Dose-response curves were established adopting a fixed concentration of 2 μg/mL UFH added in whole blood collected on sodium citrate. Five minutes after this preconditioning step, UFH neutralization was conducted by adding one of the (co-)polymers listed in Table 4 to 6. The concentration of these polymers was varied from 0.5 to 4 μg/mL in—whole blood. A special care was taken during the addition of the (co-)polymer solution in view to assure a rapid and reproducible homogenization of this solution in whole blood (rapid injection of solution in whole blood, i.e. in less than 1 s), followed directly by 3 up-and-down aspirations to avoid any risk of local over-concentrations. The total dilution arising from the UHF and polymer solutions represents only 10% to avoid any interference with coagulation pathways.
After a 15 minutes incubation period performed at 37° C. under lateral agitation the aPTT test was carried out immediately afterwards in order to determine the residual UFH activity. […] The mean and standard deviations were calculated from two independent experiments performed on senior blood donors initially collected under sodium citrate.

UFH [5] = test: Neutralization of UFH in human plasma, aPTT test; assay type: biochemical; conditions: for percentage of neutralization of UFH, mean: antidote 2 μg/mL, plasma spiked with UFH 2 μg/mL, 15 min 37°C
Experimental: as §1
All PECs were prepared by addition of 100 μL of heparin (10 μg/mL) to 300 μL of plasma. After a pre-incubation of 5 minutes at 37° C., 100 μL of a stock solution of polymers of formula (I) (10 μg/mL) was added to neutralize heparin. After 15 minutes of interaction 37° C. the aPTT analysis was performed. Anti Xa analysis was evaluated according to a similar procedure, except for the final concentrations of heparin and polymer of formula (I) which were […].
In view to assess the pharmacological activity of the polymers of formula (I) to neutralize the action of UFH, polymers of formula (I) were incubated in normal human plasma previously spiked with heparin, analysing afterwards the remaining coagulation activity of plasma using the activated partial thromboplastin time (aPTT) test. This bioassay was indeed typically used to analyse the functionality of the intrinsic pathway of the blood coagulation, using kaolin as synthetic activator of the coagulation. An incubation of 15 min at 37° C. was respected before measuring the aPPT test. The percentage of heparin neutralization in plasma (FIG. 4) was calculated using two different calibration curves of heparin in function of the group age of the donors. Indeed a difference in heparin sensitivity was noticed with aPPT test as a function of the range of age of human donors. Accordingly, two calibration curves of heparin were used, corresponding to the two categories of blood donors: group 1 (average age: 22 years) and group 2 (average age: 52 years).

For Protamine, which “aPTT at CMax” value (UFH [1]; blood of patients given 3 mg/kg UFH) is on record?
The value was 42.7 s.

What about the CMax (UFH [1]; minimal polymer concentration giving maximum neutralization of UFH, patients given 3 mg/kg UFH) of the same substance?
The CMax was 22.5 µg/mL.

And the aPTT response (UFH [1]; protamine concentration of 45 μg/mL)?
Its aPTT response is “below 70 s”.

What about the “concentration at the maximum of the heparin neutralization curve” value (UFH [2]) of the same substance?
The value was “around 1.6 μg/mL”.

And the “percentage of inhibition of factor Xa, mean” value (UFH [3]; Test number 1)?
Its value is 88.1%.

What about the “percentage of inhibition of factor Xa, mean” value (UFH [3]; Test number 2) of the same substance?
The value was 100.0%.

What about the “mean inhibition of factor Xa” value (UFH [3]; mean of two independent experiments) of the same substance?
Its value is 94.0%.

And the “percentage of inhibition of factor Xa (inhibition of heparin), mean” value (LMWH)?
Its value is 31.0%.

What about the CMax (UFH [4]; minimal polymer concentration giving saturation in UFH neutralization) of the same substance?
Its CMax is 3.00 µg/mL.

What about the IC50 (UFH [4]; polymer concentration leading to 50% of maximal capacity to neutralize UFH) of the same substance?
Its IC50 is 1.05 µg/mL.

And the “percentage of neutralization of heparin” value (UFH [5]; 15 minutes after addition of the polymers, human plasma (FIG. 4))?
Its value is 75%.

And the “percentage of neutralization of UFH, mean” value (UFH [5]; Group 1 donors (average age 22 years))?
The value was 75.0%.

What about the “percentage of neutralization of UFH, mean” value (UFH [5]; Group 2 donors (average age 52 years)) of the same substance?
The value was 76.1%.
